Assay results from ChEMBL document CHEMBL1667798, “Synthesis of new isoxazoline-based acidic amino acids and investigation of their affinity and selectivity profile at ionotropic glutamate receptors” (Eur J Med Chem, 2011).
pKi: −log10 of the molar value.

Assays:
[1] = target: Glutamate NMDA receptor; experiment: Displacement of [3H]CGP 39653 from NMDA receptor in Sprague-Dawley rat brain synaptic membrane after 60 mins by scintillation counting
[2] = Displacement of [3H]AMPA from AMPA receptor in Sprague-Dawley rat brain synaptic membrane after 30 mins by scintillation counting
[3] = Displacement of [3H]KAIN from kainate receptor in Sprague-Dawley rat brain synaptic membrane after 60 mins by scintillation counting
[4] = target: Glutamate NMDA receptor; experiment: Displacement of [3H]CPP from NMDA receptor in Sprague-Dawley rat brain synaptic membrane after 60 mins by scintillation counting

| SMILES | pKi [1] | pKi [2] | pKi [3] | pKi [4] |
| --- | --- | --- | --- | --- |
| C[C@H]1C(C(=O)O)=NO[C@H]1C[C@H](N)C(=O)O (racemic) | 5.29 | 4.51 | 4.25 |  |
| C[C@H]1C(C(=O)O)=NO[C@H]1C[C@@H](N)C(=O)O (racemic) | 5.52 | 5.39 | < 4.00 |  |
| N[C@@H](C[C@H]1CC(C(=O)O)=NO1)C(=O)O (racemic) | 6.02 | < 4.00 | < 4.00 |  |
| N[C@H](C[C@H]1CC(C(=O)O)=NO1)C(=O)O (racemic) | 6.68 | < 4.00 | < 4.00 |  |
| N[C@@]1(C(=O)O)C[C@@H]2ON=C(C(=O)O)[C@@H]2C1 (racemic) |  | < 4.00 | < 4.00 |  |

The next lines start with the values.

| pKi [1] | pKi [2] | pKi [3] | pKi [4] | SMILES |
| --- | --- | --- | --- | --- |
| 4.22 | < 4.00 | < 4.00 |  | C[C@@H]1ON=C(C(=O)O)[C@@H]1C[C@@H](N)C(=O)O (racemic) |
|  | 7.70 | 5.20 | < 4.00 | Cc1onc(C(=O)O)c1CC(N)C(=O)O (racemic) |
| 4.74 | < 4.00 | < 4.00 |  | C[C@@H]1ON=C(C(=O)O)[C@@H]1C[C@H](N)C(=O)O (racemic) |
